Marks after values point to notes of the source that are not given here.
Columns and labels:
in vivo = assay: in vivo
Experimental: The study compared various dose routes: sublingual (SL), per oral tablet (PO), subcutaneous (SC) and intravenous (IV). […] An Oral Irritation assessment was performed (SL film group): Predose (0) and 24 hr postdose by Draize scoring.

[1] = Ex vivo permeation of epinephrine, Franz diffusion cell
Experimental: A franz diffusion cell is obtained and prepared.
If testing films, one can perform the following next steps: (1) weigh films, punch to match diffusion area (or smaller), reweigh, record pre- and post-punching weight; (2) wet a donor area with approximately 100 μL of phosphate buffer; (3) place film on a donor surface, top with 400 μL of phosphate buffer, and start timers.
The tissue is dermatomed to precise thickness. • 4. […] The media is selected to ensure sink conditions. • 5.

[2] = concentration ranges explored
[3] = AQST-109 single and repeat dose PK vs EpiPen and 0.3 mg IM (AQ109201); assay type: in vivo, human; conditions: for AUC(0-t) / Cmax / Tmax: human, plasma, intramuscular, 0.3 mg
Experimental: Referring to FIG. 35, the study was a controlled study in healthy volunteers. […] However, the need and use of a second dose can be quite rare. […] Within this context, a post hoc analysis was performed.

[4] = AQST-109 12 mg residence time / food / swallowed film PK study; assay type: in vivo, human; conditions: for Cmax / AUC(0-t): AQST-109 12 mg (N = 48 doses), Epinephrine IM Injection 0.3 mg (N = 48 doses)
Experimental: In this example, three different residence times were tested. The 4 minute residence time is shown in circle data points. The 2 minute residence time is shown in downward pointing triangle data points. The 0 minute residence time is shown in upward pointing triangle data points.
The purpose of this investigation was to continue to study the administration of the film under a variety of conditions and further characterize its pharmacokinetics, pharmacodynamics, and safety. The final two arms of the study were designed to assess the impact of (1) administering the film sublingually two minutes after consuming food—in this case, a peanut butter sandwich, and (2) swallowing the film whole immediately with 240 mL of water. The control arm used for reference was the optimized sublingual film administration with a four-minute residence time.

[5] = Pilot PK study of auto-injectors vs 0.3 mg manual IM injection; assay type: in vivo; conditions: human, plasma, intramuscular, 27 healthy subjects, crossover
[6] = AQ109201 safety, adverse events; assay type: in vivo, human
[7] = in PBS (pH 7.4) at 37°±1° C., n=6; cited from earlier work
[8] = assay type: in vitro ADME, porcine; conditions: pig, 360 min
Description: FIG. 41B depicts a comparison of individual adrenergic receptor interacters in terms of amount permeated as a function of time.
FIG. 41C depicts ex vivo permeation as a function of time of different adrenergic receptor interacters in DESF compositions. The ex-vivo permeation in this example involved the exposure of porcine buccal tissue to formulations varying with regard to permeation enhancer(s) used and API concentration. […] Amount permeated increases with eugenol content, where eugenol contents in both test formulations were lower than that used in the control.
Ex-vivo permeation involved the exposure of porcine buccal tissue to formulations varying with regard to permeation enhancer(s) used and API concentration. […] Amount permeated increased with eugenol content, where eugenol contents in both test formulations were lower than that used in the control.

[9] = modified Ussing chambers; cited from earlier work
[10] = single dose: 12 mg, 0.3 mg, EpiPen

With `CNC[C@H](O)c1ccc(OC(=O)C(C)(C)C)c(OC(=O)C(C)(C)C)c1` (racemic) [Dipi Solution, dipivefrin] the “% Boiavailability (DIPI AUC0-t)” value (in vivo) was 128.5%, the “% Boiavailability (EPI AUC0-t)” value (in vivo) was 131.0% and the “time until cleared from the system” value (in vivo; iv) was ≤ 2 h. The AUC(0-t) (in vivo; iv, 1 mg) was 0.887 ng·h/mL, the Cmax (in vivo; iv, 1 mg) was 11.7 ng/mL and the “EPI Cmax (mean)” value (in vivo; iv, 1 mg) was 7.62 ng/mL. The “DIPI AUC0-t” value (in vivo; po, 6 mg) was 0, the “EPI Cmax (mean)” value (in vivo; po, 6 mg) was 0.28 ng/mL and the “EPI Tmax” value (in vivo; po, 6 mg) was 120 min. For the same molecule, the Tmax (in vivo; po, 6 mg) was 0 min, the AUC(0-t) (in vivo; sc, 22 mg) was 25.1 ng·h/mL and the Cmax (in vivo; sc, 22 mg) was 15 ng/mL. For the same molecule, the “EPI Cmax (mean)” value (in vivo; sc, 22 mg) was 12.5 ng/mL, the “EPI Tmax” value (in vivo; sc, 22 mg) was 180 min and the Tmax (in vivo; sc, 22 mg) was 5 min.
In the case of `C=CCc1ccc(O)c(OC)c1` [0.3% Eugenol], the “Permeability Coefficient” value [1] is reported as 4.14e-06 cm/s.
With `C=CCc1ccc(O)c(OC)c1` [3% Eugenol] the “Permeability Coefficient” value [1] was 7.43e-06 cm/s.
In the case of `C=CCc1ccc(O)c(OC)c1` [100% Eugenol], the “Permeability Coefficient” value [1] is reported as 3.84e-05 cm/s.
In the case of `CNC[C@H](O)c1ccc(O)c(O)c1` [Epinephrine Base], the “Average Steady State Flux” value ([1]; conc 4.4 mg/mL, solubilized in situ) is reported as 0.512 ug/cm^2*min.
With `CNC[C@H](O)c1ccc(O)c(O)c1` [Epinephrine Bitartrate] the “inherent pH in solution” value [2] was 4.5-5, the “permeation as a function of solution pH” value [1] was “slightly favorable” and the Theoretical enhancement ([1]; 8 mg/mL) was 2. The Theoretical enhancement ([1]; 16 mg/mL) was 4, the Theoretical enhancement ([1]; 100 mg/mL) was 25 and the average amount permeated ([1]; 30 min, 16 mg/mL) was 0. The average flux ([1]; 30 min, 16 mg/mL) was 0 μg/cm^2 * min, the average amount permeated ([1]; 45 min, 16 mg/mL) was 2.5 and the average flux ([1]; 45 min, 16 mg/mL) was 0.2604 μg/cm^2 * min. For the same molecule, the average amount permeated ([1]; 60 min, 16 mg/mL) was 5.5, the average flux ([1]; 60 min, 16 mg/mL) was 0.3125 μg/cm^2 * min and the average amount permeated ([1]; 120 min, 16 mg/mL) was 31.33. The average flux ([1]; 120 min, 16 mg/mL) was 0.6727 μg/cm^2 * min, the average amount permeated ([1]; 180 min, 8 mg/0.500 mL) was 72.67 and the average flux ([1]; 180 min, 8 mg/mL) was 1.076 μg/cm^2 * min. The average amount permeated ([1]; 240 min, 16 mg/mL) was 112.2, the average flux ([1]; 240 min, 16 mg/mL) was 1.029 μg/cm^2 * min and the average amount permeated ([1]; 300 min, 16 mg/mL) was 160.2. The average flux ([1]; 300 min, 16 mg/mL) was 1.25 μg/cm^2 * min, the “Average Steady State Flux” value ([1]; 360 min, 4 mg/mL) was 0.167 ug/cm^2*min and the “Average Steady State Flux” value ([1]; 360 min, 8 mg/mL) was 0.466 ug/cm^2*min. The average amount permeated ([1]; 360 min, 16 mg/mL) was 213.3, the average flux ([1]; 360 min, 16 mg/mL) was 1.385 μg/cm^2 * min and the “steady state flux average” value ([1]; 360 min, 16 mg/mL) was 1.317. For the same molecule, the “Average Steady State Flux” value ([1]; 360 min, 100 mg/mL) was 2.942 ug/cm^2*min.
For `CNC[C@H](O)c1ccc(O)c(O)c1` [Epinephrine IM Injection, epinephrine], the AUC(0-t) ([3]; AUC 0-30 min, Repeat Dose (10 min)) was 0.067 ng·h/mL, the Cmax ([3]; Repeat Dose (10 min), geometric mean, read-out: Cmax) was 0.755 ng/mL and the AUC(0-t) ([3]; Repeat Dose (10 min), read-out: AUC0-45 min) was 0.181 ng·h/mL. For the same molecule, the AUC(0-t) ([3]; Repeat Dose (10 min), read-out: AUC 0-t) was 1.3 ng·h/mL, the Tmax ([3]; Repeat Dose (10 min), read-out: Tmax (median) (converted)) was 50 min and the Tmax ([3]; Repeat Dose (10 min), read-out: Tmax Range) was 30 to 70 min. It also gave a Cmax ([3]; after one dose, read-out: maximum concentration, CMax) of 0.489 ng/mL, a Cmax ([3]; after two doses, second dose ten minutes after the first, read-out: maximum concentration, CMax) of 0.911 ng/mL and a Tmax ([3]; single dose administration, read-out: Tmax (median) (converted)) of 45 min. The “time after second dose administration until impact on PK profile” value ([3]; repeat dosing) was “over 20 min”, the “median time to reach 100 pg/mL” value ([4]; AQST-109 at 4-minute residence, 0.3 mg IM injection) was 10 min and the Cmax ([4]; human, plasma, im, 0.3 mg, read-out: Arithmetic Mean Cmax) was 0.397 ng/mL. It also gave a Cmax ([4]; human, plasma, im, 0.3 mg, read-out: Geometric Cmax) of 0.351 ng/mL, an AUC(0-t) ([4]; human, plasma, im, 0.3 mg, AUC 0-20 minutes) of 0.023 ng·h/mL and an AUC(0-t) ([4]; human, plasma, im, 0.3 mg, AUC 0-30 minutes) of 0.0475 ng·h/mL. For the same molecule, the Tmax ([4]; human, plasma, im, 0.3 mg, read-out: median time to maximum concentration (Tmax) (converted)) was 50 min, the Cmax ([5]; read-out: geometric mean Cmax) was 0.344 ng/mL and the Tmax ([5]; read-out: median Tmax (converted)) was 50 min. For the same molecule, the Cardiac disorders ([6]; repeat dose: 24 mg (N = 23), 0.6 mg (N = 23)) was 1 (4.3) n (%), the Palpitations ([6]; repeat dose: 24 mg, 0.6 mg) was 1 (4.3) n (%) and the Ventricular extrasystoles ([6]; repeat dose: 24 mg, 0.6 mg) was 1 (4.3) n (%). For the same molecule, the Cardiac disorders ([6]; single dose: 12 mg (N = 23), 0.3 mg (N = 23), EpiPen (N = 22)) was 1 (4.3) n (%), the Palpitations [6, 10] was 1 (4.3) n (%) and the Ventricular extrasystoles [6, 10] was 0 n (%).
For `CC(C)NCC(O)COc1cccc2ccccc12` (stereo not shown) [PP], the “C0 of saturated solution” value [7] is given as 588.005 ± 5.852 ng/mL.
In the case of `OCc1ccccc1` [benzyl alcohol], the amount permeated [8] is reported as 50 to 100 µg.
For `Cn1c(=O)c2c(ncn2C)n(C)c1=O` [caffeine], the “permeability through buccal epithelium compared with full thickness buccal tissue” value [9] is given as 1.8 fold.
`Cc1ccc(C(C)(C)O)cc1` [cherry propanol, 2-(4-methylphenyl)propan-2-ol] showed an amount permeated [8] of 0 to 50 µg.
In the case of `C=CCc1ccc(O)c(OC)c1` [eugenol], the amount permeated [8] is reported as 50 to 275 µg.

— patent US20240016734A1 (Aquestive Therapeutics, Inc., priority 2022, published 2024)
